How the values were obtained:
MDA-MB-231 = assay: cells; type: cell-based; details: Homo sapiens, 120 h; MDA-MB-231 cells, five days co-incubation; read-out: IC50 (nM) MDA-MB-231
Description: (§1) MDA-MB-231, OV90, and NCI-N87 cells at defined cell densities (1,500 cells per well, 80 µL volume) were seeded into 96-well plates. The cells were cultured overnight in a constant-temperature incubator (37°C, 5% CO2). Ecteinascidin derivative solutions at a maximum concentration of 2 mM were first prepared in DMSO, and serial 1:4 gradient dilutions were performed. 1 µL of each DMSO-prepared dilution was added to 99 µL of PBS containing 10% FBS per well and mixed thoroughly. The diluted solutions (2 µL of diluted solution and 18 µL of PBS containing 10% FBS per well) were then co-incubated with the cells (37°C, 5% CO2) for five days, after which CellTiter-Glo reagent (40 µL per well) was added, and […] values were measured using an i3x microplate reader.

NCI-N87 = assay: cells; type: cell-based; details: Homo sapiens, 120 h; NCI-N87 cells, five days co-incubation; read-out: IC50 (nM) NCI-N87
Description: as §1

OV90 = assay: cells; type: cell-based; details: Homo sapiens, OV-90, 120 h; OV90 cells, five days co-incubation; read-out: IC50 (nM) OV90
Description: as §1

[1] = test system: specific soft tissue sarcomas; details: cited from earlier work
[2] = 378 patients who received at least one dose; cited from earlier work
[3] = test system: MDA-MB-231, OV90, and NCI-N87 cells; assay: Tumor cell proliferation inhibition assay of novel ecteinascidin derivatives, summary over the three cell lines; type: cell-based; details: compared with trabectedin and lurbinectedin
Description: as §1, with “The” for “MDA-MB-231, OV90, and NCI-N87 cells at defined cell densities (1,500 cells per well, 80 µL volume) were seeded into 96-well plates. The”

Compound	IC50 (MDA-MB-231) [nM]	IC50 (NCI-N87) [nM]	IC50 (OV90) [nM]	in-vitro cytotoxic activities [3]	further results
COc1cc2c(cc1O)CCN[C@]21CS[C@@H]2c3c(OC(C)=O)c(C)c4c(c3[C@H](COC1=O)N1[C@@H]2[C@H]2c3c(cc(C)c(OC)c3O)C[C@@H]([C@@H]1O)N2C)OCO4 [Trabectedin]	1 to 10	< 1	10 to 200		HR ([1]; disease progression or death, 95% CI: 0.44-0.70, p<0.001): 0.55; median OS ([1]; more than 500 patients): 13.7 months; risk of disease progression or death was reduced ([1]; more than 500 patients): 45%; median PFS ([1]; more than 500 patients, n=345, 95% CI: 3.0-4.8 months): 4.2 months; adverse reactions: constipation [2]: 37%; adverse reactions: decreased appetite [2]: 37%; adverse reactions: diarrhea [2]: 35%; adverse reactions: dyspnea [2]: 25%; adverse reactions: fatigue [2]: 69%; adverse reactions: headache [2]: 25%; adverse reactions: nausea [2]: 75%; adverse reactions: peripheral edema [2]: 28%; adverse reactions: vomiting [2]: 46%; grade 3-4 laboratory abnormalities: alanine transaminase (ALT) increase [2]: 31%; grade 3-4 laboratory abnormalities: anemia [2]: 19%; grade 3-4 laboratory abnormalities: aspartate transaminase (AST) increase [2]: 17%; grade 3-4 laboratory abnormalities: creatine kinase increase [2]: 6.4%; grade 3-4 laboratory abnormalities: neutropenia [2]: 43%; grade 3-4 laboratory abnormalities: thrombocytopenia [2]: 21%
COc1c(C)cc2c(c1O)[C@@H]1[C@@H]3[C@@H]4SC[C@]5(NCCc6cc(NC(=O)CO)c(F)cc65)C(=O)OC[C@@H](c5c6c(c(C)c(OC(C)=O)c54)OCO6)N3[C@@H](C#N)[C@H](C2)N1C [P85]	< 1	< 1	< 1	superior to or comparable to those of trabectedin and lurbinectedin	
COc1c(C)cc2c(c1O)[C@@H]1[C@@H]3[C@@H]4SC[C@]5(NCCc6cc(N)c(C)cc65)C(=O)OC[C@@H](c5c6c(c(C)c(OC(C)=O)c54)OCO6)N3[C@@H](C#N)[C@H](C2)N1C [P172]	< 1	< 1	< 1	superior to or comparable to those of trabectedin and lurbinectedin	
COc1cc2c(cc1N)C(OC)CN[C@]21CS[C@@H]2c3c(OC(C)=O)c(C)c4c(c3[C@H](COC1=O)N1[C@@H]2[C@H]2c3c(cc(C)c(OC)c3O)C[C@@H]([C@@H]1C#N)N2C)OCO4 (stereo partly drawn) [T10]	< 1	< 1	< 1	superior to or comparable to those of trabectedin and lurbinectedin	
COc1cc2c(cc1N)C(C)(C)CN[C@]21CS[C@@H]2c3c(OC(C)=O)c(C)c4c(c3[C@H](COC1=O)N1[C@@H]2[C@H]2c3c(cc(C)c(OC)c3O)C[C@@H]([C@@H]1O)N2C)OCO4 [P52]	< 1	< 1	< 1	superior to or comparable to those of trabectedin and lurbinectedin	
COc1c(C)cc2c(c1O)[C@@H]1[C@@H]3[C@@H]4SC[C@]5(NCCc6cc(N)c(F)cc65)C(=O)OC[C@@H](c5c6c(c(C)c(OC(C)=O)c54)OCO6)N3[C@@H](C#N)[C@H](C2)N1C [P1]	< 1	< 1	< 1	superior to or comparable to those of trabectedin and lurbinectedin	
COc1cc2c(cc1NC(=O)[C@H]1C[C@@H](O)C1)CCN[C@]21CS[C@@H]2c3c(OC(C)=O)c(C)c4c(c3[C@H](COC1=O)N1[C@@H]2[C@H]2c3c(cc(C)c(OC)c3O)C[C@@H]([C@@H]1C#N)N2C)OCO4 [P74]	< 1	< 1	< 1	superior to or comparable to those of trabectedin and lurbinectedin	
COc1cc2c(cc1NC(=O)CO)C(C)(C)CN[C@]21CS[C@@H]2c3c(OC(C)=O)c(C)c4c(c3[C@H](COC1=O)N1[C@@H]2[C@H]2c3c(cc(C)c(OC)c3O)C[C@@H]([C@@H]1C#N)N2C)OCO4 [P96]	< 1	< 1	< 1	superior to or comparable to those of trabectedin and lurbinectedin	
COc1cc2c(cc1N)C(N(C)C)CN[C@]21CS[C@@H]2c3c(OC(C)=O)c(C)c4c(c3[C@H](COC1=O)N1[C@@H]2[C@H]2c3c(cc(C)c(OC)c3O)C[C@@H]([C@@H]1C#N)N2C)OCO4 (stereo partly drawn) [P30]	< 1	< 1	< 1	superior to or comparable to those of trabectedin and lurbinectedin	

Reference: patent publication EP4778932A1 (priority 2023, dated 2025)
